PMC5578959, “Selective LRRK2 kinase inhibition reduces phosphorylation of endogenous Rab10 and Rab12 in human peripheral mononuclear blood cells” (Scientific Reports, 2017)

What was measured:
[1] = system: Rab12-pSer106; experiment: Western Blot, cultured immune stimulated human PBMCs; type: cell-based; details: 100 nM, 1hr or 24 hrs
Description: PBMC were isolated from fresh blood collected within a maximal time of 4 hours after blood collection. Leucosep tubes (Greiner 227290) was added 15 ml Ficoll (GE Healthcare 17-440-03) and spun 30 s at 1000 × g. Blood was diluted 1:1 using D-PBS 1X (Gibco 14190), transfered to the Leucosep and centrifuged at 800 g for 15 min without brake. The upper layer corresponding to the diluted plasma was removed and the PBMC layer collected using a pipette or by pouring into a clean BD Falcon 50 ml tube. Cells were re-suspended and washed four times with 10 ml of D-PBS 1X (Gibco 14190) followed by centrifugation at 250 g for 10 min with brake at room temperature. The supernatant was discarded and the cells re-suspended in Complete medium equilibrated to 37 °C. The number of dead and living cells were counted on a Nucleocounter and used to calculate percent viability. […]
Cell pellets were resuspended and solubilized in 100 µL lysis buffer (50 mM Tris hydrochloride, 1 mM magnesium chloride, 1% Triton, 0.1% sodium dodecyl sulfate (SDS), pH 8.0) on ice for 20 minutes and then centrifuged at 20,000 g for 30 minutes at 4 °C. […] The proteins were visually detected by infrared imaging using Odyssey CLx (LI-COR, Nebraska, US). Membranes were scanned and band intensities were quantified using the Image Studio version 3.1.4 (LI-COR, Nebraska).

[2] = system: Rab12-pSer106; experiment: Western Blot, HEK293 cells co-expressing HA-Rab12 and LRRK2 variants; type: cell-based, human; details: 100 nM; HEK293 co-overexpressing HA-Rab12 and LRRK2 WT, G2019S or R1441C
Description: Plasmids encoding various LRRK2 and Rab GTPase protein variants were transiently expressed in HEK293 cells using Lipofectamine®2000 according to the manufacturer’s instructions (Thermo Fisher Scientific, US).
HEK293 cells were plated at a density of 1 × 10^6 cells/well in 6-well plates pre-coated for 1 hr at 37 °C with poly-L-lysin. Subsequent to the transient transfection HEK293 cells were harvested using 1 mL cold Phosphate Buffered Saline (PBS) buffer (Invitrogen, California, US) and subsequently centrifuged at 800 g for 2 minutes. Cell pellets were resuspended and solubilized in 100 µL lysis buffer (50 mM Tris hydrochloride, 1 mM magnesium chloride, 1% Triton, 0.1% sodium dodecyl sulfate (SDS), pH 8.0) on ice for 20 minutes and then centrifuged at 20,000 g for 30 minutes at 4 °C. The solubilized crude cell lysate was size mobility separated by SDS-polyacrylamide gel electrophoresis (SDS-PAGE). LRRK2 was separated on a 3–8% Tris-Acetate gel (NuPAGE® Tris-Acetate Mini Gels, Life Technologies, Paisley, UK) and Rab10 and Rab12 were separated using a NuPAGE® Novex 4–12% Bis-Tris Gel (Invitrogen, California, US). An amount of 10 µg total protein was loaded in each well. Proteins were transferred to immobilon-FL PVDF membranes (Millipore, Billerica, US).

[3] = system: kinases other than LRRK2 (off-target kinases); experiment: KiNativ broad kinase profiling in human PBMCs; type: binding; details: 100 nM
Description: Compounds were shipped to ActivX Technologies (San Diego, US) where LRRK2 target engagement and broad kinase profiling was performed using KiNativ™ procedures. Live cell treatment of human peripheral blood mononuclear cells (PBMCs) at two compound concentrations (1 µM and 0.1 µM) were used to evaluate and compare in vitro target engagement and kinase selectivity, respectively (see Supplementary File 1).

[4] = system: T1, Erk1; experiment: KiNativ profiling in human PBMCs; type: binding; details: Lys2
T1 construct: purchased ActivX Technologies (KiNativ)
Procedure, shortened: (§1)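 Cellular kinase profiling (KiNativ) was run on peripheral blood mononuclear cells incubated live with compound, tested at 1 µM and 0.1 µM.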

[5] = system: T2, IKKa; experiment: KiNativ profiling in human PBMCs; type: binding; details: Lys2
T2 construct: purchased ActivX Technologies (KiNativ)
Procedure, shortened: as §1

[6] = system: T3, JAK2 domain2; experiment: KiNativ profiling in human PBMCs; type: binding; details: Activation Loop
T3 construct: JAK2 domain2; purchased ActivX Technologies (KiNativ)
Procedure, shortened: as §1

[7] = system: MARK2,MARK3; experiment: KiNativ profiling in human PBMCs; type: binding; details: Lys2
Procedure, shortened: as §1

[8] = system: MARK3,MARK4,QIK; experiment: KiNativ profiling in human PBMCs; type: binding; details: Lys1
Procedure, shortened: as §1

[9] = system: T4, NEK7; experiment: KiNativ profiling in human PBMCs; type: binding; details: Lys1
T4 construct: purchased ActivX Technologies (KiNativ)
Procedure, shortened: as §1

[10] = system: T5, RSKL1 domain1; experiment: KiNativ profiling in human PBMCs; type: binding; details: for Inhibition: Protein Kinase Domain; for % Inhibition: ATP
T5 construct: RSKL1 domain1; purchased ActivX Technologies (KiNativ)
Procedure, shortened: as §1

[11] = system: SGK,SGK2,SGK3; experiment: KiNativ profiling in human PBMCs; type: binding; details: Lys1
Procedure, shortened: as §1

[12] = system: T6, TAK1; experiment: KiNativ profiling in human PBMCs; type: binding; details: Lys2
T6 construct: purchased ActivX Technologies (KiNativ)
Procedure, shortened: as §1

[13] = system: AMPKa1,AMPKa2; experiment: KiNativ profiling in human PBMCs; type: binding
Procedure, shortened: as §1

[14] = system: T7, AMPKa1; experiment: KiNativ profiling in human PBMCs; type: binding; details: ATP Loop
T7 construct: purchased ActivX Technologies (KiNativ)
Procedure, shortened: as §1

[15] = system: T8, MAPKAPK3; experiment: KiNativ profiling in human PBMCs; type: binding; details: ATP Loop
T8 construct: purchased ActivX Technologies (KiNativ)
Procedure, shortened: as §1

[16] = system: T9, BLK; experiment: KiNativ profiling in human PBMCs; type: binding; details: Activation Loop
T9 construct: purchased ActivX Technologies (KiNativ)

[17] = system: T10, CDK9; experiment: KiNativ profiling in human PBMCs; type: binding; details: Lys2
T10 construct: purchased ActivX Technologies (KiNativ)

[18] = system: T11, CLK3; experiment: KiNativ profiling in human PBMCs; type: binding; details: ATP Loop
T11 construct: purchased ActivX Technologies (KiNativ)

[19] = system: T12, GAK; experiment: KiNativ profiling in human PBMCs; type: binding; details: Lys2
T12 construct: purchased ActivX Technologies (KiNativ)

[20] = system: T13, GPRK5; experiment: KiNativ profiling in human PBMCs; type: binding; details: Lys2
T13 construct: purchased ActivX Technologies (KiNativ)

[21] = system: T14, ITPK1; experiment: KiNativ profiling in human PBMCs; type: binding; details: ATP
T14 construct: purchased ActivX Technologies (KiNativ)

[22] = system: T15, MAP2K1; experiment: KiNativ profiling in human PBMCs; type: binding; details: Lys2
T15 construct: purchased ActivX Technologies (KiNativ)

[23] = system: T16, MAP3K3; experiment: KiNativ profiling in human PBMCs; type: binding; details: Lys1
T16 construct: purchased ActivX Technologies (KiNativ)

[24] = system: T17, MAST4; experiment: KiNativ profiling in human PBMCs; type: binding; details: Lys2
T17 construct: purchased ActivX Technologies (KiNativ)

[25] = system: T18, p38b; experiment: KiNativ profiling in human PBMCs; type: binding; details: Protein Kinase Domain
T18 construct: purchased ActivX Technologies (KiNativ)

[26] = system: T19, p70S6Kb; experiment: KiNativ profiling in human PBMCs; type: binding; details: Lys2
T19 construct: purchased ActivX Technologies (KiNativ)

[27] = system: T20, PDHK1; experiment: KiNativ profiling in human PBMCs; type: binding; details: ATP
T20 construct: purchased ActivX Technologies (KiNativ)

[28] = system: T21, PKCh; experiment: KiNativ profiling in human PBMCs; type: binding; details: Lys1
T21 construct: purchased ActivX Technologies (KiNativ)

[29] = system: ROCK1, ROCK2; experiment: KiNativ profiling in human PBMCs; type: binding; details: Lys2
[30] = system: T22, SRPK1; experiment: KiNativ profiling in human PBMCs; type: binding; details: Lys2
T22 construct: purchased ActivX Technologies (KiNativ)

[31] = system: T23, ZC2/TNIK; experiment: KiNativ profiling in human PBMCs; type: binding; details: Lys1
T23 construct: purchased ActivX Technologies (KiNativ)

## Cc1cccc(-c2cc(Nc3ccn(C)n3)nc3[nH]cc(C#N)c23)c1 [Lu AF58786]
[1]
  inhibition of Rab12 phosphorylation (Rab12-pSer106): not able to significant inhibit
[2]
  phosphorylation of Rab12 (pSer106): statistically significant reduction
[3]; human PBMCs
  inhibition of other kinases: no inhibition
[4]; 0.1µM
  Inhibition: 2.3%
[4]; 1µM
  Inhibition: 1.5%
[5]; 0.1µM
  Inhibition: 9.8%
[5]; 1µM
  Inhibition: 6.8%
[6]; 0.1µM
  Inhibition: 16.1%
[6]; 1µM
  Inhibition: -3.5%
[7]; 0.1µM
  Inhibition: -38.4%
[7]; 1µM
  Inhibition: -36.2%
[8]; 0.1µM
  Inhibition: 3.0%
[8]; 1µM
  Inhibition: 5.7%
[9]; 0.1µM
  Inhibition: -17.5%
[9]; 1µM
  Inhibition: 16.7%
[10]; 0.1µM
  Inhibition: 15.2%
[10]; 1µM
  Inhibition: 1.9%
[11]; 0.1µM
  Inhibition: 7.0%
[11]; 1µM
  Inhibition: 0.243%
[12]; 0.1µM
  Inhibition: 21.8%
[12]; 1µM
  Inhibition: -11.4%

## Cn1cc(-c2c[nH]c3ncnc(N4CCOCC4)c23)cc1C#N [PFE-360]
[1]
  inhibition of Rab12 phosphorylation (Rab12-pSer106): not able to significant inhibit
[3]; acutely isolated human PBMCs
  inhibition of off-target kinases: ≤ 60%
[13]; 0.1µM, Lys1
  % Inhibition: 0.8%
[13]; 0.1µM, Lys2
  % Inhibition: -17.7%
[13]; 1µM, Lys1
  % Inhibition: -2.7%
[13]; 1µM, Lys2
  % Inhibition: 7.4%
[14]; 0.1µM
  % Inhibition: -1%
[14]; 1µM
  % Inhibition: 4%
[4]; 0.1µM
  % Inhibition: 7.7%
[4]; 1µM
  % Inhibition: 3.7%
[5]; 0.1µM
  % Inhibition: 17.9%
[5]; 1µM
  % Inhibition: 15.8%
[15]; 0.1µM
  % Inhibition: -5.1%
[15]; 1µM
  % Inhibition: -8.3%
[7]; 0.1µM
  % Inhibition: -16.2%
[7]; 1µM
  % Inhibition: 16.7%
[9]; 0.1µM
  % Inhibition: 2.8%
[9]; 1µM
  % Inhibition: 11.7%
[10]; 0.1µM
  % Inhibition: -38%
[10]; 1µM
  % Inhibition: 7.3%
[12]; 0.1µM
  % Inhibition: -3.5%
[12]; 1µM
  % Inhibition: -20%
[16]; 0.1µM
  % Inhibition: 12.4%
[16]; 1µM
  % Inhibition: -11.6%
[17]; 0.1µM
  % Inhibition: -8.9%
[17]; 1µM
  % Inhibition: -4.4%
[18]; 0.1µM
  % Inhibition: 3.8%
[18]; 1µM
  % Inhibition: -6.8%
[19]; 0.1µM
  % Inhibition: -12.4%
[19]; 1µM
  % Inhibition: -36.6%
[20]; 0.1µM
  % Inhibition: 19.3%
[20]; 1µM
  % Inhibition: 1.5%
[21]; 0.1µM
  % Inhibition: -34%
[21]; 1µM
  % Inhibition: -34.7%
[22]; 0.1µM
  % Inhibition: -25.9%
[22]; 1µM
  % Inhibition: 6.5%
[23]; 0.1µM
  % Inhibition: 18.3%
[23]; 1µM
  % Inhibition: 16.1%
[24]; 0.1µM
  % Inhibition: -5.7%
[24]; 1µM
  % Inhibition: -21.4%
[25]; 0.1µM
  % Inhibition: 3.5%
[25]; 1µM
  % Inhibition: 7%
[26]; 0.1µM
  % Inhibition: -6.9%
[26]; 1µM
  % Inhibition: 10.8%
[27]; 0.1µM
  % Inhibition: -3.7%
[27]; 1µM
  % Inhibition: -3%
[28]; 0.1µM
  % Inhibition: -10.3%
[28]; 1µM
  % Inhibition: -11%
[29]; 0.1µM
  % Inhibition: -31.8%
[29]; 1µM
  % Inhibition: -10.7%
[30]; 0.1µM
  % Inhibition: 12.7%
[30]; 1µM
  % Inhibition: -13.2%
[31]; 0.1µM
  % Inhibition: -31.6%
[31]; 1µM
  % Inhibition: 12.3%
